Assay results: patent US20260217717A1, “CDK2 INHIBITORS” (BLUEPRINT MEDICINES CORPORATION, priority 2023, published 2026)

Experiments:
CDK1/Cyclin B1 = biological target: T1, CDK1/Cyclin B1 (Homo sapiens, UniProt P06493); assay: CDK1/Cyclin B1 enzymatic phosphorylation assay (Caliper mobility shift); format: biochemical; settings: read-out: Enzyme CDK1/cyclin B1 IC50
T1 construct: GST; purchased BPS 40454
Method: (§1) Reactions proceeded until between 10% to 20% total peptides were phosphorylated at room temperature (25° C.) and were terminated with 35 mM 2,2′,2″,2′″-(ethane-1,2-diyldinitrilo)tetraacetic acid (EDTA). Product was detected using the Caliper mobility shift detection method where the phosphorylated peptide (product) and substrate were electrophoretically separated and measured. Percent activity was plotted against log concentration of compound and points to generate an apparent IC50.

CDK2/Cyclin E = biological target: T2, CDK2/Cyclin E (Homo sapiens, UniProt P24941); assay: CDK2/Cyclin E enzymatic phosphorylation assay (Caliper mobility shift); format: biochemical; settings: read-out: Enzyme CDK2/cyclin E IC50; further: 1.0 mM ATP or ATP Km
T2 construct: purchased Eurofins 14-475
Method: as §1

T1 sequence (P06493 whole entry): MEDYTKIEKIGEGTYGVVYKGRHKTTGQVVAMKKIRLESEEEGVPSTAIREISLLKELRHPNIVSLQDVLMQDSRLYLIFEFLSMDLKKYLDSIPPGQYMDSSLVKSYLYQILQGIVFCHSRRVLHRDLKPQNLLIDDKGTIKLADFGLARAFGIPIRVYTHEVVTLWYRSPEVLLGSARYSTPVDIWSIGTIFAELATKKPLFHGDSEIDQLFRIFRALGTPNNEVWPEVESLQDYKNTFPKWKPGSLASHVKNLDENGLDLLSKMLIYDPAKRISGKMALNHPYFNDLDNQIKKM
T1 sequence (P14635 whole entry partner): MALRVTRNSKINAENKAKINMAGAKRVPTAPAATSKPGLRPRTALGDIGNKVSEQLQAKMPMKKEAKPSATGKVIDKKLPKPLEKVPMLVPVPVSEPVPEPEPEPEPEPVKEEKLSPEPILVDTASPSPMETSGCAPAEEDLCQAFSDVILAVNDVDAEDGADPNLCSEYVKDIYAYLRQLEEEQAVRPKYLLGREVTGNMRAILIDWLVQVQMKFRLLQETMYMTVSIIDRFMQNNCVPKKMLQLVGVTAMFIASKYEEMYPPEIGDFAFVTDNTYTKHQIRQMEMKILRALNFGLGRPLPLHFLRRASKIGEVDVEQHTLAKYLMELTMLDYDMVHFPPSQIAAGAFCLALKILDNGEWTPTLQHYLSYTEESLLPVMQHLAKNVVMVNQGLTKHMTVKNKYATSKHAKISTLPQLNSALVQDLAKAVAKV

SMILES | IC50 (CDK1/Cyclin B1) [nM] | IC50 (CDK2/Cyclin E) [nM]
Cc1cc(Nc2cnc3cnn([C@@H](C)c4cc(F)ccn4)c3n2)n[nH]1 (single isomer, unassigned) [Example 19, (S)-1-(1-(4-fluoropyridin-2-yl)ethyl)-N-(5-methyl-1H-pyrazol-3-yl)-1H-pyrazolo[3,4-b]pyrazin-6-amine or (R)-1-(1-(4-fluoropyridin-2-yl)ethyl)-N-(5-methyl-1H-pyrazol-3-yl)-1H-pyrazolo[3,4-b]pyrazin-6-amine] | 1380 | 4.5
c1ccc(Cn2ncc3ncc(Nc4cc(C5COC5)[nH]n4)nc32)cc1 [Example 44, 1-benzyl-N-(5-(oxetan-3-yl)-1H-pyrazol-3-yl)-1H-pyrazolo[3,4-b]pyrazin-6-amine] | 2220 | 18.5
Cc1cc(Nc2cnc3cnn([C@H]4CC[C@H](O)CC4)c3n2)n[nH]1 [Example 39, (1r,4r)-4-(6-((5-methyl-1H-pyrazol-3-yl)amino)-1H-pyrazolo[3,4-b]pyrazin-1-yl)cyclohexan-1-ol] | 7650 | 90
CCc1cc(Nc2cnc3cnn(CC4CCOCC4)c3n2)n[nH]1 [Example 37, N-(5-ethyl-1H-pyrazol-3-yl)-1-((tetrahydro-2H-pyran-4-yl)methyl)-1H-pyrazolo[3,4-b]pyrazin-6-amine] | 533 | 5.4
CC(C)c1cc(Nc2cnc3cnn([C@H]4CC[C@H](O)CC4)c3n2)n[nH]1 [Example 57, (1r,4r)-4-(6-((5-isopropyl-1H-pyrazol-3-yl)amino)-1H-pyrazolo[3,4-b]pyrazin-1-yl)cyclohexan-1-ol] | 174 | 1
CC(C)c1cc(Nc2cnc3cnn(CCCO)c3n2)n[nH]1 [Example 1, 3-(6-((5-isopropyl-1H-pyrazol-3-yl)amino)-1H-pyrazolo[3,4-b]pyrazin-1-yl)propan-1-ol] | 2990 | 21.5
C[C@@H](c1ccccn1)n1ncc2ncc(Nc3cc(C#N)[nH]n3)nc21 [Example 25, (S)-3-((1-(1-(pyridin-2-yl)ethyl)-1H-pyrazolo[3,4-b]pyrazin-6-yl)amino)-1H-pyrazole-5-carbonitrile] | 10000 | 76.1
CC(C)c1cc(Nc2cnc3cnn(C[C@H]4CCCOC4)c3n2)n[nH]1 (single isomer, unassigned) [Example 9, (R)-N-(5-isopropyl-1H-pyrazol-3-yl)-1-((tetrahydro-2H-pyran-3-yl)methyl)-1H-pyrazolo[3,4-b] pyrazin-6-amine or (S)-N-(5-isopropyl-1H-pyrazol-3-yl)-1-((tetrahydro-2H-pyran-3-yl)methyl)-1H-pyrazolo[3,4-b]pyrazin-6-amine] | 144 | 0.6
c1cncc(Cn2ncc3ncc(Nc4cc(C5COC5)[nH]n4)nc32)c1 [Example 34, N-(5-(oxetan-3-yl)-1H-pyrazol-3-yl)-1-(pyridin-3-ylmethyl)-1H-pyrazolo[3,4-b]pyrazin-6-amine] | 1900 | 10.8
Cc1cc(Nc2cnc3cnn([C@@H](C)c4cccnc4F)c3n2)n[nH]1 [Example 56, (S)-1-(1-(2-fluoropyridin-3-yl)ethyl)-N-(5-methyl-1H-pyrazol-3-yl)-1H-pyrazolo[3,4-b]pyrazin-6-amine] | 709 | 3
C[C@@H](C1CCOCC1)n1ncc2ncc(Nc3cc(C4COC4)[nH]n3)nc21 [Example 41, (S)-N-(5-(oxetan-3-yl)-1H-pyrazol-3-yl)-1-(1-(tetrahydro-2H-pyran-4-yl)ethyl)-1H-pyrazolo[3,4-b]pyrazin-6-amine] | 334 | 1.7
C[C@@H](c1cccnc1)n1ncc2ncc(Nc3cc(C(F)F)[nH]n3)nc21 [Example 2, (S)-N-(5-(difluoromethyl)-1H-pyrazol-3-yl)-1-(1-(pyridin-3-yl)ethyl)-1H-pyrazolo[3,4-b]pyrazin-6-amine] | 6030 | 22.8
Fc1ccccc1Cn1ncc2ncc(Nc3cc(C4COC4)[nH]n3)nc21 [Example 45, 1-(2-fluorobenzyl)-N-(5-(oxetan-3-yl)-1H-pyrazol-3-yl)-1H-pyrazolo[3,4-b]pyrazin-6-amine] | 1380 | 5.3
C[C@H](c1cc(Nc2cnc3cnn(CC4CCOCC4)c3n2)n[nH]1)C(F)F (single isomer, unassigned) [Example 20] | 1010 | 7.4
c1nc2cnn(C[C@H]3[C@@H]4COC[C@@H]43)c2nc1Nc1cc(C2COC2)[nH]n1 [Example 16, 1-(((1R,5S,6s)-3-oxabicyclo[3.1.0]hexan-6-yl)methyl)-N-(5-(oxetan-3-yl)-1H-pyrazol-3-yl)-1H-pyrazolo[3,4-b]pyrazin-6-amine] | 1020 | 8.5
C[C@@H](c1cccnc1)n1ncc2ncc(Nc3cc(C4COC4)[nH]n3)nc21 [Example 33, (S)-N-(5-(oxetan-3-yl)-1H-pyrazol-3-yl)-1-(1-(pyridin-3-yl)ethyl)-1H-pyrazolo[3,4-b]pyrazin-6-amine] | 1420 | 6.4

SMILES | IC50 (CDK1/Cyclin B1) [nM] | IC50 (CDK2/Cyclin E) [nM]
C[C@@H](c1ccccc1F)n1ncc2ncc(Nc3cc(C4COC4)[nH]n3)nc21 [Example 52, (S)-1-(1-(2-fluorophenyl)ethyl)-N-(5-(oxetan-3-yl)-1H-pyrazol-3-yl)-1H-pyrazolo[3,4-b]pyrazin-6-amine] | 104 | 0.2
Fc1ncccc1Cn1ncc2ncc(Nc3cc(C4COC4)[nH]n3)nc21 [Example 49, 1-((2-fluoropyridin-3-yl)methyl)-N-(5-(oxetan-3-yl)-1H-pyrazol-3-yl)-1H-pyrazolo[3,4-b]pyrazin-6-amine] | 644 | 2.8
Cc1cc(Nc2cnc3cnn([C@@H](C)c4cccnc4)c3n2)n[nH]1 [Example 15, (S)-N-(5-methyl-1H-pyrazol-3-yl)-1-(1-(pyridin-3-yl)ethyl)-1H-pyrazolo[3,4-b]pyrazin-6-amine] | 5660 | 29.2
C[C@@H](c1ccc(F)cc1)n1ncc2ncc(Nc3cc(C4COC4)[nH]n3)nc21 [Example 53, (S)-1-(1-(4-fluorophenyl)ethyl)-N-(5-(oxetan-3-yl)-1H-pyrazol-3-yl)-1H-pyrazolo[3,4-b]pyrazin-6-amine] | 330 | 1.9
CC(C)c1cc(Nc2cnc3cnn([C@H](C)c4cccnc4)c3n2)n[nH]1 [Example 40, (R)-N-(5-isopropyl-1H-pyrazol-3-yl)-1-(1-(pyridin-3-yl)ethyl)-1H-pyrazolo[3,4-b]pyrazin-6-amine] | 93 | 0.3
CC(C)c1cc(Nc2cnc3cnn(C[C@@H](C)CO)c3n2)n[nH]1 [Example 60, (R)-3-(6-((5-isopropyl-1H-pyrazol-3-yl)amino)-1H-pyrazolo[3,4-b]pyrazin-1-yl)-2-methylpropan-1-ol] | 1570 | 7.9
CC(=O)N1CCC[C@H](n2ncc3ncc(Nc4cc(C(C)C)[nH]n4)nc32)C1 [Example 59, (S)-1-(3-(6-((5-isopropyl-1H-pyrazolo-3-yl)amino)-1H-pyrazolo[3,4-b]pyrazin-1-yl)piperidin-1-yl)ethan-1-one] | 2370 | 14.8
Cc1cc(Nc2cnc3c(Cl)nn([C@@H](C)c4cccnc4)c3n2)n[nH]1 [Example 27, (S)-3-chloro-N-(5-methyl-1H-pyrazol-3-yl)-1-(1-(pyridin-3-yl)ethyl)-1H-pyrazolo[3,4-b]pyrazin-6-amine] | 10000 | 96.1
C[C@@H](c1cccc(F)c1)n1ncc2ncc(Nc3cc(C4COC4)[nH]n3)nc21 [Example 51, (S)-1-(1-(3-fluorophenyl)ethyl)-N-(5-(oxetan-3-yl)-1H-pyrazol-3-yl)-1H-pyrazolo[3,4-b]pyrazin-6-amine] | 422 | 1.8
Fc1ccc(Cn2ncc3ncc(Nc4cc(C5COC5)[nH]n4)nc32)cc1 [Example 47, 1-(4-fluorobenzyl)-N-(5-(oxetan-3-yl)-1H-pyrazol-3-yl)-1H-pyrazolo[3,4-b]pyrazin-6-amine] | 1380 | 16
C[C@@H](c1cccnc1F)n1ncc2ncc(Nc3cc(C#N)[nH]n3)nc21 [Example 22, (S)-3-((1-(1-(2-fluoropyridin-3-yl)ethyl)-1H-pyrazolo[3,4-b]pyrazin-6-yl)amino)-1H-pyrazole-5-carbonitrile] | 3460 | 8.8
C[C@@H](c1ccccn1)n1ncc2ncc(Nc3cc(C4COC4)[nH]n3)nc21 [Example 55, (S)-N-(5-(oxetan-3-yl)-1H-pyrazol-3-yl)-1-(1-(pyridin-2-yl)ethyl)-1H-pyrazolo[3,4-b]pyrazin-6-amine] | 951 | 2
C[C@@H](c1cccnc1)n1ncc2ncc(Nc3cc(C4CC4)[nH]n3)nc21 [Example 31, (S)-N-(5-cyclopropyl-1H-pyrazol-3-yl)-1-(1-(pyridin-3-yl)ethyl)-1H-pyrazolo[3,4-b]pyrazin-6-amine] | 57.8 | 0.1
CC(=O)N1CCC(n2ncc3ncc(Nc4cc(C(C)C)[nH]n4)nc32)CC1 [Example 58, 1-(4-(6-((5-isopropyl-1H-pyrazol-3-yl)amino)-1H-pyrazolo[3,4-b]pyrazin-1-yl)piperidin-1-yl)ethan-1-one] | 237 | 3.5
CC(C)c1cc(Nc2cnc3cnn(CC4CCOCC4)c3n2)n[nH]1 [Example 30, N-(5-isopropyl-1H-pyrazol-3-yl)-1-((tetrahydro-2H-pyran-4-yl)methyl)-1H-pyrazolo[3,4-b]pyrazin-6-amine] | 113 | 0.6
Cc1cc(Nc2cnc3c(Cl)nn([C@@H](C)c4cccnc4F)c3n2)n[nH]1 [Example 28, (S)-3-chloro-1-(1-(2-fluoropyridin-3-yl)ethyl)-N-(5-methyl-1H-pyrazol-3-yl)-1H-pyrazolo[3,4-b]pyrazin-6-amine] | 2700 | 5.6
